System: Aβ in H1299 cell-conditioned media
Test: ELISA, oligomer versus total Aβ in H1299 cell-conditioned media
Format: cell-based, human
Details: Fig. 8B
Experimental: Aβ ELISAs were carried out according to previous protocols for determining the oligomeric and monomeric concentrations of Aβ and as we recently reported. Briefly, total Aβ (monomers + oligomers) was measured by two‐site binding ELISAs using the capture 6E10 monoclonal antibody and 4G8‐conjugated biotin as the detection antibody, which recognizes a distinct epitope, then quantitated using streptavidin‐HRP.
Using the same samples, oligomerized Aβ was measured by a single‐site ELISA in which antibodies targeting the same primary sequence epitope were used for both capture (4G8) and detection (4G8‐biotin). Only oligomers are detected with this approach since the 4G8‐biotin antibody cannot bind to the captured monomer because the epitope is blocked by the 4G8 capture antibody. Therefore, only oligomeric or multimeric Aβ containing additional exposed 4G8 epitopes, not engaged by the capture antibody, are reported by the streptavidin–HRP. The amount of the monomer was then estimated as the difference between the concentration of total Aβ and the concentration of the oligomer.
Conditioned media were immunodepleted (ID) according to the methods previously described and our recently published report. Briefly, specific antibodies were bound to ELISA wells overnight (1 : 1000 dilution). The wells were then blocked and washed, then 300 μL of the conditioned medium (0.5 μg·μL^−1) treated as indicated, 72 h postserum starvation, was incubated with the antibodies bound to ELISA wells for 24 h. The ID media were then carefully removed and analyzed for the presence of the target protein or peptide by ELISA. The same amount of protein (3 µL of 600 µg·mL^−1 total protein) of each sample was analyzed in the experiments. Significant depletion (95–100%) was observed upon using each of the antibodies employed in this study.
Both epitopes recognized by the 6E10 and 4G8 antibodies have been previously shown to be exposed in Aβ aggregates. […] To determine the effect of ID of AChE or HN on this ratio in the absence or presence of added ATP, 0.2 × 10^5 cells per well were seeded in 96‐well plates in 10% FBS‐supplemented media. The next day, the cells were incubated in serum‐free medium for 72 h, then ID of AChE or HN as described in Materials and methods. The antibodies 6E10 or 4G8 were bound (1 : 1000 dilution) to ELISA wells (Fig. 8). The wells were blocked, and then incubated with 300 μL of the ID medium (0.5 μg·μL^−1). Biotin‐4G8 was then added and the signal processed as described in Materials and methods section. Fold change relative to controls using anti‐6E10 or anti‐4G8 antibodies incubated with 300 μL of the medium not incubated with cells was calculated.
Cells (0.2 × 10^5) were grown in 10% FBS‐supplemented media for 24 h. The cells were then incubated in serum‐free medium for 72 h without or with ATP and the media collected and ID from either HN or AChE as described in Materials and methods section. The antibodies 6E10 or 4G8 were bound (1 : 1000 dilution) to ELISA wells. The wells were blocked, and then incubated with 300 μL of the control and ID medium (0.5 μg·μL^−1). Biotin‐4G8 was then added and the signal processed as described in Materials and methods section. Fold change relative to controls using anti‐6E10 and anti‐4G8 antibodies and 300 μL of the medium not incubated with cells was calculated. Data were processed using the […] 8.4.3 software. The graphs summarize the results expressed as means ± SD of three separate experiments, each performed in triplicate. […]

| Compound | oligomer, % of total Aβ remaining after HN ID (HN-immunodepleted H1299 media (non-depleted ~ 48%)) | total Aβ remaining after HN ID (HN-immunodepleted H1299 media) | effect of ATP on relative amount of oligomer versus total Aβ (HN-immunodepleted H1299 media, three experiments in triplicate) | effect of ATP on relative amount of oligomer versus total Aβ (non-depleted, HN-ID or AChE-ID media) |
| --- | --- | --- | --- | --- |
| Humanin [HN] | ~ 69% | ~ 58% |  |  |
| Nc1ncnc2c1ncn2[C@@H]1O[C@H](COP(=O)(O)OP(=O)(O)OP(=O)(O)O)[C@@H](O)[C@H]1O [ATP, Adenosine triphosphate] |  |  | does not affect | lack of effect |
